The text below walks through data of US20020160459A1, “PROCESS FOR PRODUCTION OF N-GLUCOSAMINE” (priority 1999, published 2002).

Where two headings read alike, the source gives them in different places.

The target of experiment [1] is T1, N-glucosamine-6-phosphate synthase (Escherichia coli, UniProt P17169). Description: Product inhibition of N-glucosamine-6-phosphate synthase, spectrophotometric assay in crude cell extracts. The experiment is classed as biochemical. Conditions: FIG. 5; assays run with various concentrations of added product. Here is the method: N-glucosamine-6-phosphate synthase activity was measured in production strains containing integrated T7-glmS cassettes after growth in LB medium with and without IPTG (Table 2). N-glucosamine-6-phosphate synthase was assayed in crude cell extracts using either […] or spectrophotometric assays (Badet et al., 1987, Biochemistry 26:1940-1948) as described below. The extracts used for those assays were prepared by suspending washed cell pellets in 5 mL of 0.1 M KH2PO4/K2HPO4, pH 7.5 per gram of wet cell paste, passing the suspension through a French press at 16,000 psi, and centrifuging the disrupted cell suspension at 35,000-40,000 ×g for 15 to 20 minutes. The supernatant was used as the source of enzyme for the assay.
In the spectrophotometric assay, 1 mL reactions containing 50 mM KH2PO4/K2HPO4, 10 mM fructose-6-phosphate, 6 mM L-glutamine, 10 mM KCl, 0.6 mM acetylpyridine adenine dinucleotide (APAD), and 50-60 Units of L-glutamic dehydrogenase (Sigma Type II from bovine liver) were run at room temperature. The activity was followed by monitoring the absorbance at 365 nm after the addition of extract and corrected for the small absorbance increase observed in the absence of extract. The activity was calculated using a molar extinction coefficient for APAD of 9100. […]

Experiment [2] deals with T1, N-glucosamine-6-phosphate synthase. Conditions: White 1968, Biochem. J. 106:847-858; cited from earlier work.
Experiment [3] shares this target. To be noted: substrate of the enzyme from Escherichia coli; cited from earlier work.

T1 sequence (P17169 2-609): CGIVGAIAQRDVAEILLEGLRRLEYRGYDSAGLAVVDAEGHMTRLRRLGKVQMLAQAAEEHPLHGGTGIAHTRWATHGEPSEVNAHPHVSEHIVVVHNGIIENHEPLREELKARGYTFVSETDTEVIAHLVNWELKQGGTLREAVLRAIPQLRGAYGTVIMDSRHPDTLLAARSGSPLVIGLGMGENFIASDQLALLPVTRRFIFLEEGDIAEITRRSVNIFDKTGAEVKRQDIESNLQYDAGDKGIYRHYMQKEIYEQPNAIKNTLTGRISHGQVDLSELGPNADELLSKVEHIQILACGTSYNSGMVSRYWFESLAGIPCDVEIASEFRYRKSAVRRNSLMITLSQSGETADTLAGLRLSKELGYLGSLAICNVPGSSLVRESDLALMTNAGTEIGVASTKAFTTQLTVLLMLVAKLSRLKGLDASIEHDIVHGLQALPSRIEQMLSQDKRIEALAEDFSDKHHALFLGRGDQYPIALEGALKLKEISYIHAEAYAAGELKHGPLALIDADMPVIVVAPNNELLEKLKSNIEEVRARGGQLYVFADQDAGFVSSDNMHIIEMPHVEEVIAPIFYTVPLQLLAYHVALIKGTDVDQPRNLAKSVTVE

Take `N[C@@H]1[C@@H](O)[C@H](O)[C@@H](COP(=O)(O)O)O[C@@H]1O` [N-glucosamine-6-phosphate]: the “inhibition of N-glucosamine-6-phosphate synthase” value was “significantly inhibited” in experiment [1] and “inhibited” in experiment [2].

In the case of `N[C@H]1C(O)O[C@H](CO)[C@@H](O)[C@@H]1O` (some centres unmarked) [N-glucosamine], the “inhibition of N-glucosamine-6-phosphate synthase” value in experiment [1] was “slightly inhibited”.

The term Km denotes the concentration of substrate that gives half-maximal velocity. `O=C(CO)[C@@H](O)[C@H](O)[C@H](O)COP(=O)(O)O` [fructose-6-phosphate]: the Km in experiment [3] is 2000 µM. `NC(=O)CC[C@H](N)C(=O)O` [glutamine]: the Km in experiment [3] was 400 µM.
